“Also recorded” adds a separate entry of the source. Like-named read-outs stand apart in the source and are kept apart here.
Experiments:
[1] = system: B16F10 pulmonary metastasis of melanoma; assay: Lung metastasis model of melanoma; type: in vivo; settings: 5×10^5 B16F10 cells i.v., 4 mg/kg every other day, six cycles, day 24, n = 5, mean ± s.d.; PBS group 94 ± 41
[2] = Acute toxicity test in vivo; settings: healthy C57BL/6 mice; for body weight: every other day, six cycles
[3] = system: Ki-67, β-catenin, np β-catenin, Cyclin D1, c-Myc, p-ERK1/2, N-cadherin, E-cadherin; assay: Immunohistochemistry of tumor-bearing lung sections; settings: 4 mg/kg, six cycles, score I × A, n = 5, control scored 8.3
Procedure: All samples were assayed in triplicate.
Construct a lung metastasis model of melanoma
The lung metastasis model o f melanoma was constructed as follows: B16F10 cells (5 × 10^5 cells per
100 µL) were transplanted into healthy C57BL/6 mice by intravenous injection at 5 -6 weeks of age.
After 3 days, the mice were randomly divided into the PBS control group, CA group (4 mg/kg),
HBBplus group (4 mg/kg), HBBplus@CA group (4 mg/ kg), HBBplus + CA group (4 mg/ kg) tail-vein
injected, every other day, summed six cycles. The experiment was terminated, and the mice were
euthanized. For histological examination, the tumor, liver, k idney, heart, spleen , and lung tissues
were fixed with formaldehyde, dehydrated, sliced into 4 μm sections, and subjected to H&E or
immunohistochemical staining.
H&E and immunohistochemistry (IHC) staining
Tumor-bearing lungs and primary organ tissues were dissected and immersed in formalin solution.
Then they were paraffin-embedded, sectioned with a 4 μm thick. Nextly, the sections were stained
with hematoxylin-eosin (H&E) according to standard histopathological techniques. Besides, under
conventional immunohistochemical staining, the expression of Ki -67 (Proteintech, USA; 1: 400),
β-catenin (Thermo Fisher, China; 1: 2000), np β-catenin (Cell Signaling Technology, USA; 1: 100), […]
1: 500) in tumor-bearing lungs sections were detected. […]

B16F10 cells [4] = assay: Cell clone formation assay; type: cell-based, mouse; settings: 7 days of drug treatment
B16F10 cells [5] = system: B16F10 cells
Procedure: (§9) To explore the antitumor properties of HBB^plus@CA at the cellular level, we measured the viability of B16F10 cells after treatment with HBB^plus@CA.
(§10) Mouse melanoma cell line B16F10, mouse macrophage cell line RAW 264.7, and human leukemic
(§11) T-cell line Jurkat were obtained from the Chinese Academy of Science Cell Bank (Shanghai, China).
(§12) B16F10 and RAW 264.7 cells were maintained in DMEM medium, Jurkat was cultured in RPMI-
(§13) 1640 medium, and the above mediums were supplemented with 10% FBS, 100 U/mL penicillin,
(§14) and 100 μg/mL streptomycin. All cells were maintained at 37°C in an atmosphere of 5% CO2.
(§15) Melanoma cells B16F10 were inoculated uniformly in 96 empty plates according to 2000 cells.
(§16) After 24 h, different gradient concentrations of HBB plus@CA or CA, HBB, or RGDSP-X were
(§17) intervened at 37°C in an atmosphere of 5% CO 2 for 72 h. The in vitro cell viability was measured
(§18) using a standard Alamar blue (Thermo Fisher Scientific, China) assay in the B16F10 cell s.

B16F10 cells [6] = assay: Cell viability, Alamar blue
Procedure: as §9, §10, §11, §12, §13, §14, §15, §16, §17, §18

B16F10 cells [7] = assay: Scratch wound healing assay; type: cell-based, mouse; settings: 60 μM, 24 h, 1% FBS; for migration rate: Image J, triplicate
Procedure: (§1) As a next step, we tested the ability of supramolecular peptides to prevent tumor cell migration and invasion. […] Meanwhile, a scratch wound was harvested as part of the migration assay, and the healing process was observed. Based on a digital image, the areas of scratching without cells immediately following scratching and those of scratching without cells after the assay was calculated. […] We observed the same results in the transwell migration assay. Furthermore, tumor cells' invasive abilities play a critical role in metastasis. Using a transwell invasion assay (Figure 4G), we assessed the ability of HBB^plus@CA to inhibit tumor cell invasion.
(§2) Scratch wound healing assay […]
(§3) monolayer with a pipette tip (100 μL). The monolayer membrane was washed with PBS three times, […]
(§4) Detection Kit (BD Falco, China). […]
(§5) for 24 h at a concentration of 40 μM.
(§6) FITC-labeled HBB, HBBplus, and […]
(§7) it for 10 min. […] DAPI (Sigma-Aldrich,
(§8) Finally, a super-resolution confocal microscope was used to observe the cell uptake situation.

[8] = system: β-catenin, np-β-catenin, c-Myc; assay: Western blot, Wnt/β-catenin pathway proteins; type: cell-based, mouse; settings: B16F10 cells, 24 h
B16F10 lung metastasis = assay: Ex vivo fluorescence biodistribution in mice with pulmonary metastatic melanoma; settings: Cy5-SE labelled, i.v. 200 μL (1 mg/mL), tumor-bearing C57BL/6 mice, organs at 12 h and 24 h
p-ERK1/2 = assay: Western blot, p-ERK1/2; type: cell-based, mouse; settings: B16F10 cells
B16F10 cells [9] = assay: Transwell migration and invasion assays; type: cell-based, mouse; settings: 30 μM, 24h-48h
Procedure: as §1
performed on a Talos F200X.
The hydrodynamic size distribution (1
Zetasizer Nano ZS system). The surface chemical structure of modified nanocrystals was evaluated
(Shimadzu 3000 spectrophotometer). The structural identification of modified nanocrystals was
and 100 μg/mL streptomycin.
The in vitro cell viability was measured
containing 15% FBS medium for 24h -48h. Cells that migrated or invaded across the membrane

B16F10 cells [10] = assay: Cell apoptosis by flow cytometry (FITC Annexin V/PI); type: cell-based, mouse; settings: 40 μM, 24 h
Procedure: as §2, §3, §4, §5, §6, §7, §8

[11] = Self-assembly into nanospheres observed by TEM; type: physicochemical; settings: peptide alone without CA
Text: The hydrophobic tails of HBB^plus interact and gather together, forming a hydrophobic core. At the same time, the hydrophilic head interacts with water molecules to wrap around the core, forming a stable micelle structure. The hydrophobic drug CA will be encapsulated in the hydrophobic area of the micelles during micellar assembly. CA is immobilized inside the micelles by interacting with the hydrophobic tails of the micelles (hydrophobic interactions and hydrogen bonding) (Figure 1D). We used the GROMACS 2018.3 software package and combined it with the MARTINI coarse-grained model (version 2.2) to conduct dynamics simulations on a system composed of 24× HBB^plus peptide molecules and 100× CA molecules in an aqueous solution during 5000 ns. […] To verify it, CA was mixed with HBB^plus in mass ratios ranging from 4:1 to 0.25:1. […] Furthermore, there was a strong positive correlation between the concentration of CA and particle size (Figure 1E). […]
Zetasizer Nano ZS system). The surface chemical structure of modified nanocrystals was evaluated […]
The in vitro cell viability was measured […]

With CC(C)c1cc2c(c(O)c1O)[C@@]1(C(=O)O)CCCC(C)(C)[C@@H]1CC2 [CA, carnosic acid] the “number of metastatic lung foci” value [1] was 37 ± 10 per lung, the “renal function tests (urea nitrogen, creatinine)” value ([2]; 4-40 mg/kg) was “did not cause severe nephrotoxicity” and the “RBC, WBC, PLT, HGB, GRAN, Mon, Lymph in blood” value ([2]; 4-40 mg/kg, n = 3/group, versus controls) was “neither HBB^plus@CA nor CA affected”. For the same molecule, the body weight ([2]; 5× doses (20 mg/kg)) was “notable weight loss”, the “ALT and AST (liver function)” value ([2]; 10× doses (40 mg/kg)) was “elevations of ALT and AST” and the body weight ([2]; 10× doses (40 mg/kg)) was “notable weight loss”. For the same molecule, the “H&E staining of lung tissue” value ([2]; low-dose and high-dose groups) was “inflammatory cell infiltration”, the “TNF-α, IFN-γ and EPO levels of peripheral blood” value ([2]; up to high dose, ELISA, n = 3/group) was “did not significantly increase” and the “Ki-67 expression score (IHC)” value [3] was 5.7. The clone formation (B16F10 cells [4]) was “significantly reduced the number of clones”, the “cytotoxicity / antiproliferative activity” value (B16F10 cells [5]) was “concentration-dependent cytotoxicity” and the IC50 (B16F10 cells [6]; Mus musculus, B16-F10, 72 h, read-out: IC50 (cell viability)) was 29.2 ± 4.68 µM. For the same molecule, the migration rate (B16F10 cells [7]) was ~ 27% and the “β-catenin, np-β-catenin and c-Myc protein expression” value [8] was “significantly downregulated”.

With RGDSPENPRLLGNVLVCVLA [HBB^plus] the “number of metastatic lung foci” value [1] was 32 ± 12 per lung, the “tumor accumulation (biodistribution)” value (B16F10 lung metastasis) was “superior tumor accumulation compared to HBB” and the “level of p-ERK1/2” value (p-ERK1/2) was “reduced the level; also recorded: significantly down-regulated”. The “Ki-67 expression score (IHC)” value [3] was 6.2, the clone formation (B16F10 cells [4]) was “more potent antiproliferative activity” and the “transwell migration and invasion” value (B16F10 cells [9]) was “inhibited the migration”. For the same molecule, the “apoptosis of tumor cells” value (B16F10 cells [10]) was “significantly effective in increasing the apoptosis”, the “cytotoxicity / antiproliferative activity” value (B16F10 cells [6]; B16F10 cells, 72 h, Alamar blue) was “more potent antiproliferative activity” and the “migration in scratch assay” value (B16F10 cells [7]) was “inhibited the migration”. For the same molecule, the migration rate (B16F10 cells [7]) was ~ 36% and the self-assembly into nanospheres [11] was “incapable of undergoing such a process”.
